“And” between values parts separate entries of the source, which are not always exact repeats. Equal entries are not always repeated.
Molecular target: T1, PfCRT^Dd2_F145I (Plasmodium falciparum, UniProt Q8IBZ9, A220S/F145I/I356T/K76T/M74I/N326S/N75E/Q271E/R371I)
T1 construct: expressed in transfected cells; host or cells: Xenopus laevis oocytes injected with in vitro transcribed RNA (pSP64T)
T1 sequence (Q8IBZ9 1-424 M74I/N75E/K76T/F145I/A220S/Q271E/N326S/I356T/R371I): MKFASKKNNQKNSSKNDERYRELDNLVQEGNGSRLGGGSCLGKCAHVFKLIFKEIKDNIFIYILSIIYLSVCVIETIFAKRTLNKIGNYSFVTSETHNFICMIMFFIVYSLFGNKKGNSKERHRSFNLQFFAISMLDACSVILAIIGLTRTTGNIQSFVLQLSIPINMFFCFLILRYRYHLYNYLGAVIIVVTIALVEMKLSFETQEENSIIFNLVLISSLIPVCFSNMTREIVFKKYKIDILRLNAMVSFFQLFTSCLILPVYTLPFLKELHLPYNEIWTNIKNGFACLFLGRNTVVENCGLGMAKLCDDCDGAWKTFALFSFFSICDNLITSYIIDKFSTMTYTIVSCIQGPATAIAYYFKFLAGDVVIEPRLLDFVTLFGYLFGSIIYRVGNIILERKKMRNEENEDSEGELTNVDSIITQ
Assay: Radiolabeled drug uptake in X. laevis oocytes expressing PfCRT^Dd2_F145I
Assay type: cell-based
Text: The two kinetic parameters were derived by fitting the Michaelis-Menten equation to the kinetic data (Table 1).
A codon-optimized coding sequence of the Dd2 isoform of PfCRT (PfCRT^Dd2) was subcloned into the pSP64T expression vector [21]. To generate the necessary mutations to introduce the amino acid substitutions H97Y, F145I, M343L or G353V into the pfcrt sequence, the overlap extension method was used. A region from the 5’-untranslated Xenopus β-globin sequence to the respective 3’ region, containing the full length pfcrt coding sequence, was amplified using the following primer pairs: for the H97Y mutation, numbers 1/4 and 2/3; for the F145I mutation, numbers 1/6 and 2/5; for the M343L mutation, numbers 1/8 and 2/7; and for the G353V mutation, numbers 1/10 and 2/9 (for primers, see S2 Table). Both PCR products were used as template for amplification of the final product using primers number 1/2. The resulting fragment was cloned into the pSP64T expression vector, and the presence of the desired mutation was confirmed by sequencing.
Adult female X. laevis frogs (purchased from NASCO) were anesthetized by submersion in a solution of 0.3% (w/v) 3-amino benzoate methanesulfonate for 15 min. Sections of the ovary were surgically removed and placed in Ca^2+-free ND96 buffer supplemented with 0.1% collagenase D (w/v; Roche), 0.5% BSA (w/v) and 9 mM Na2HPO4 at 18°C for 14–16 h while gently shaking. The oocytes were then washed several times with ND96 buffer (5 mM HEPES, pH 7.5, 96 mM NaCl, 2 mM KCl, 1.8 mM CaCl2, 1 mM MgCl2), supplemented with […] gentamycin. Healthy-looking stage V-VI oocytes were manually selected and randomly grouped for injection. A codon-optimized coding sequence of PfCRT was subcloned into the pSP64T expression vector and subsequently linearized using the restriction endonuclease BamHI or SalI (New England Biolabs GmbH). RNA for injection was transcribed in vitro using the mMESSAGE mMACHINE SP6 Transcription kit (Ambion), diluted with nuclease-free water to a final concentration of 0.6 μg/μL and stored at -80°C. RNA was injected using precision-bore glass capillary tubes (3.5-inch glass capillaries; Drummond Scientific Co.), which were pulled on a vertical puller (P-87 Flaming/Brown micropipette puller, Sutter Instrument Co.) and graduated. The micropipettes were connected to a microinjector (Nanoject II Auto-Nanoliter Injector, Drummond Scientific Co.). Injection was conducted under stereomicroscopic control. 50 nL of nuclease-free water alone (control oocytes) or 50 nL of nuclease-free water containing 30 ng of RNA was injected per oocyte. Injected oocytes were kept for 72 h at 18°C in ND96 buffer with two daily buffer changes before being used for further experiments.
Drug transport assays were performed as previously described. Briefly, measurements of radiolabeled drug uptake were made over 1 h, unless otherwise specified. […] Where specified, one or more unlabeled drugs were also present at the indicated concentrations. […] The uptake assays were terminated by removing the oocytes from the reaction medium and washing them three times with 2 mL of ice-cold ND96 buffer. Each oocyte was transferred to a separate scintillation vial and lysed by the addition of 200 μL of a 5% SDS solution. The radioactivity in the sample was measured using a liquid scintillation analyser Tri-Carb 4910 TR (PerkinElmer). Water-injected oocytes were analyzed in parallel as a negative control. The buffer from each condition was measured in duplicate in parallel to each experiment to transform counts per minute into pmol of drug. Drug uptake attributable to PfCRT was determined by subtracting the background uptake from water-injected oocytes from that of PfCRT-expressing oocytes.

[1] = 50 μM CQ, pH 6.0, total uptake, one value per biological replicate
[2] = 50 μM CQ, pH 6.0, water-injected uptake subtracted, per replicate
[3] = 60 min, pH 6, per biological replicate

In the case of `CCN(CC)CCCC(C)Nc1ccnc2cc(Cl)ccc12` (stereo not shown) [CQ, chloroquine], the “PfCRTDd2_F145I-mediated CQ uptake at 10 µM CQ” value (10 µM CQ, single replicates) is reported as 1.05 pmol oocyte-1 h-1 and 0.76 pmol oocyte-1 h-1 and 0.87 pmol oocyte-1 h-1, the “PfCRTDd2_F145I uptake of CQ at 10 min” value [1] is reported as 5.03 pmol oocyte-1 and 4.98 pmol oocyte-1 and 4.51 pmol oocyte-1 and 3.10 pmol oocyte-1 and 1.40 pmol oocyte-1 and the “PfCRTDd2_F145I uptake of CQ at 30 min” value [1] is reported as 5.64 pmol oocyte-1 and 11.05 pmol oocyte-1 and 6.90 pmol oocyte-1 and 4.67 pmol oocyte-1 and 6.95 pmol oocyte-1. The “PfCRTDd2_F145I uptake of CQ at 60 min” value [1] was 18.17 pmol oocyte-1 and 7.02 pmol oocyte-1 and 13.61 pmol oocyte-1, the “PfCRTDd2_F145I uptake of CQ at 90 min” value [1] was 12.38 pmol oocyte-1 and 19.74 pmol oocyte-1 and 12.45 pmol oocyte-1 and 15.73 pmol oocyte-1 and the “PfCRTDd2_F145I uptake of CQ at 120 min” value [1] was 27.64 pmol oocyte-1 and 15.50 pmol oocyte-1 and 17.12 pmol oocyte-1 and 17.11 pmol oocyte-1. For the same compound, the “PfCRTDd2_F145I uptake of CQ at 180 min” value [1] was 16.65 pmol oocyte-1 and 27.26 pmol oocyte-1 and 23.91 pmol oocyte-1 and 24.65 pmol oocyte-1 and 18.05 pmol oocyte-1, the “PfCRTDd2_F145I-mediated CQ uptake at 10 min” value [2] was 0.94 pmol oocyte-1 and 1.01 pmol oocyte-1 and 0.80 pmol oocyte-1 and 2.16 pmol oocyte-1 and 0.92 pmol oocyte-1 and the “PfCRTDd2_F145I-mediated CQ uptake at 30 min” value [2] was 0.42 pmol oocyte-1 and 1.71 pmol oocyte-1 and 1.49 pmol oocyte-1 and 3.31 pmol oocyte-1 and 2.06 pmol oocyte-1. For the same compound, the “PfCRTDd2_F145I-mediated CQ uptake at 60 min” value [2] was 3.80 pmol oocyte-1 and 4.28 pmol oocyte-1 and 2.84 pmol oocyte-1, the “PfCRTDd2_F145I-mediated CQ uptake at 90 min” value [2] was 3.78 pmol oocyte-1 and 4.21 pmol oocyte-1 and 3.32 pmol oocyte-1 and 5.64 pmol oocyte-1 and the “PfCRTDd2_F145I-mediated CQ uptake at 120 min” value [2] was 7.06 pmol oocyte-1 and 4.10 pmol oocyte-1 and 3.52 pmol oocyte-1 and 3.59 pmol oocyte-1. For the same compound, the “PfCRTDd2_F145I-mediated CQ uptake at 180 min” value [2] was 3.40 pmol oocyte-1 and 6.55 pmol oocyte-1 and 4.77 pmol oocyte-1 and 7.29 pmol oocyte-1 and 3.73 pmol oocyte-1, the “PfCRTDd2_F145I-mediated CQ uptake at 50 µM CQ” value (50 µM CQ, single replicates) was 3.80 pmol oocyte-1 h-1 and 4.28 pmol oocyte-1 h-1 and 2.84 pmol oocyte-1 h-1 and the “PfCRTDd2_F145I-mediated CQ uptake at 100 µM CQ” value (100 µM CQ, single replicates) was 7.23 pmol oocyte-1 h-1 and 7.33 pmol oocyte-1 h-1 and 8.14 pmol oocyte-1 h-1. The “PfCRTDd2_F145I-mediated CQ uptake at 200 µM CQ” value (200 µM CQ, single replicates) was 12.53 pmol oocyte-1 h-1 and 11.12 pmol oocyte-1 h-1 and 14.18 pmol oocyte-1 h-1, the “PfCRTDd2_F145I-mediated CQ uptake at 300 µM CQ” value (300 µM CQ, single replicates) was 13.73 pmol oocyte-1 h-1 and 16.27 pmol oocyte-1 h-1 and 18.53 pmol oocyte-1 h-1 and the “PfCRTDd2_F145I-mediated CQ uptake at 400 µM CQ” value (400 µM CQ, single replicates) was 14.23 pmol oocyte-1 h-1 and 18.19 pmol oocyte-1 h-1 and 22.31 pmol oocyte-1 h-1. For the same compound, the “PfCRTDd2_F145I-mediated CQ uptake at 500 µM CQ” value (500 µM CQ, single replicates) was 19.16 pmol oocyte-1 h-1 and 17.39 pmol oocyte-1 h-1 and 23.99 pmol oocyte-1 h-1, the “PfCRTDd2_F145I-mediated CQ uptake at 10 µM CQ” value [3] was 1.05 pmol oocyte-1 h-1 and 0.76 pmol oocyte-1 h-1 and 0.87 pmol oocyte-1 h-1 and the “PfCRTDd2_F145I-mediated CQ uptake at 50 µM CQ” value [3] was 2.84 pmol oocyte-1 h-1 and 3.80 pmol oocyte-1 h-1 and 4.28 pmol oocyte-1 h-1. For the same compound, the “PfCRTDd2_F145I-mediated CQ uptake at 100 µM CQ” value [3] was 7.23 pmol oocyte-1 h-1 and 7.33 pmol oocyte-1 h-1 and 8.14 pmol oocyte-1 h-1, the “PfCRTDd2_F145I-mediated CQ uptake at 200 µM CQ” value [3] was 12.53 pmol oocyte-1 h-1 and 11.12 pmol oocyte-1 h-1 and 14.18 pmol oocyte-1 h-1 and the “PfCRTDd2_F145I-mediated CQ uptake at 300 µM CQ” value [3] was 13.73 pmol oocyte-1 h-1 and 16.27 pmol oocyte-1 h-1 and 18.53 pmol oocyte-1 h-1. For the same compound, the “PfCRTDd2_F145I-mediated CQ uptake at 400 µM CQ” value [3] was 14.23 pmol oocyte-1 h-1 and 18.19 pmol oocyte-1 h-1 and 22.31 pmol oocyte-1 h-1, the “PfCRTDd2_F145I-mediated CQ uptake at 500 µM CQ” value [3] was 19.16 pmol oocyte-1 h-1 and 17.39 pmol oocyte-1 h-1 and 23.99 pmol oocyte-1 h-1 and the “Vmax, maximal velocity of drug transport” value (Michaelis-Menten fit, 10-500 μM drug, 60 min, pH 6) was 35 ± 2 pmol oocyte^-1 h^-1. For the same compound, the “increase of KM by the F145I substitution” value (versus PfCRT^Dd2) was 44%.
